PubChem BioAssay AID328 (DTP/NCI, 2004)
Several values for one entry are separate records, joined by “and”; a condition that tells them apart may be missing. Equal entries are not always repeated. Inconclusive results and toxic doses are left out. Rule for the calls: active = survival T/C of 150% or more; inactive = T/C below 125% in these data. Residues, ends and D or L forms follow the SMILES beside them.

System: BDF1 mice, P388 leukemia ip, median survival T/C
Assay: NCI In Vivo Anticancer Drug Screen. Data for tumor model P388 Leukemia (intraperitoneal) in B6D2F1 (BDF1) mice
Conditions: endpoint: median survival time, higher = longer survival
In short: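 Mice carrying the transplantable tumour receive compound or vehicle. Survival is followed in each arm, and the treated measure is divided by the vehicle measure.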

[1] = dose: 50.0 mg/kg/injection, schedule: Q01DX009 (ip), vehicle: saline with Tween-80
[2] = dose: 100.0 mg/kg/injection, schedule: Q04DX003 (ip), vehicle: saline sonified
[3] = dose: 50.0 mg/kg/injection, schedule: Q04DX003 (ip), vehicle: saline with Tween-80
[4] = dose: 100.0 mg/kg/injection, schedule: Q04DX003 (ip), vehicle: saline with Tween-80
[5] = dose: 25.0 mg/kg/injection, schedule: Q04DX003 (ip), vehicle: saline
[6] = dose: 50.0 mg/kg/injection, schedule: Q04DX003 (ip), vehicle: saline
[7] = dose: 100.0 mg/kg/injection, schedule: Q04DX003 (ip), vehicle: saline
[8] = dose: 100.0 mg/kg/injection, schedule: Q01DX009 (ip), vehicle: saline with Tween-80
[9] = dose: 6.25 mg/kg/injection, schedule: Q01DX009 (ip), vehicle: saline
[10] = dose: 12.5 mg/kg/injection, schedule: Q01DX009 (ip), vehicle: saline
[11] = dose: 25.0 mg/kg/injection, schedule: Q01DX009 (ip), vehicle: saline
[12] = dose: 50.0 mg/kg/injection, schedule: Q01DX009 (ip), vehicle: saline
[13] = dose: 100.0 mg/kg/injection, schedule: Q01DX009 (ip), vehicle: saline
[14] = dose: 200.0 mg/kg/injection, schedule: Q01DX009 (ip), vehicle: saline
[15] = dose: 400.0 mg/kg/injection, schedule: Q01DX009 (ip), vehicle: saline
[16] = dose: 200.0 mg/kg/injection, schedule: Q01DX009 (ip), vehicle: saline with Tween-80
[17] = dose: 200.0 mg/kg/injection, schedule: Q04DX003 (ip), vehicle: saline with Tween-80
[18] = dose: 400.0 mg/kg/injection, schedule: Q04DX003 (ip), vehicle: saline with Tween-80

Measured: T/C

CC(C)(C)COC(=O)CCN1CC1
inactive: dose: 2.5 mg/kg/injection, schedule: Q01DX009 (ip), vehicle: Klucel (hydroxypropylcellulose) (HPC) 116 % of control | dose: 5.0 mg/kg/injection, schedule: Q01DX009 (ip), vehicle: Klucel (hydroxypropylcellulose) (HPC) 111 % of control | dose: 10.0 mg/kg/injection, schedule: Q01DX009 (ip), vehicle: Klucel (hydroxypropylcellulose) (HPC) 122 % of control | dose: 20.0 mg/kg/injection, schedule: Q01DX009 (ip), vehicle: Klucel (hydroxypropylcellulose) (HPC) 100 % of control | dose: 20.0 mg/kg/injection, schedule: Q04DX003 (ip), vehicle: Klucel (hydroxypropylcellulose) (HPC) 95 % of control | dose: 40.0 mg/kg/injection, schedule: Q04DX003 (ip), vehicle: Klucel (hydroxypropylcellulose) (HPC) 100 % of control | dose: 80.0 mg/kg/injection, schedule: Q04DX003 (ip), vehicle: Klucel (hydroxypropylcellulose) (HPC) 109 % of control

CCOC(=O)Nc1ccc(/C=C\c2ccnc3ccccc23)cc1
inactive: dose: 12.5 mg/kg/injection, schedule: Q01DX009 (ip), vehicle: saline with Tween-80 106 % of control | dose: 25.0 mg/kg/injection, schedule: Q01DX009 (ip), vehicle: saline with Tween-80 115 % of control | [1] 92 % of control and 94 % of control

CCC12CCCN3C(=O)CC(C(=O)CC1)C32 (stereo not drawn)
inactive: dose: 25.0 mg/kg/injection, schedule: Q04DX003 (ip), vehicle: saline sonified 95 % of control | dose: 50.0 mg/kg/injection, schedule: Q04DX003 (ip), vehicle: saline sonified 109 % of control | [2] 109 % of control

CCCCN(CCC#N)CCCC
inactive: dose: 25.0 mg/kg/injection, schedule: Q04DX003 (ip), vehicle: saline with Tween-80 100 % of control | [3] 100 % of control | [4] 100 % of control

C=CCC(B1OCCO1)B1OCCO1
inactive: [5] 95 % of control | [6] 90 % of control | [7] 100 % of control

CN(C1=NS(=O)(=O)N=C(N(C)c2ccccc2)O1)c1ccccc1
inactive: dose: 25.0 mg/kg/injection, schedule: Q01DX009 (ip), vehicle: Klucel (hydroxypropylcellulose) (HPC) 122 % of control | dose: 50.0 mg/kg/injection, schedule: Q01DX009 (ip), vehicle: Klucel (hydroxypropylcellulose) (HPC) 102 % of control | [1] 89 % of control | dose: 100.0 mg/kg/injection, schedule: Q01DX009 (ip), vehicle: Klucel (hydroxypropylcellulose) (HPC) 115 % of control | [8] 99 % of control | dose: 200.0 mg/kg/injection, schedule: Q01DX009 (ip), vehicle: Klucel (hydroxypropylcellulose) (HPC) 105 % of control

CC(=O)Oc1cccc2c1C(=O)c1c(OC(C)=O)cccc1C2=O
inactive: dose: 3.13 mg/kg/injection, schedule: Q04DX003 (ip), vehicle: Klucel (hydroxypropylcellulose) (HPC) 101 % of control | dose: 12.5 mg/kg/injection, schedule: Q04DX003 (ip), vehicle: Klucel (hydroxypropylcellulose) (HPC) 99 % of control | dose: 25.0 mg/kg/injection, schedule: Q04DX003 (ip), vehicle: Klucel (hydroxypropylcellulose) (HPC) 117 % of control | dose: 50.0 mg/kg/injection, schedule: Q04DX003 (ip), vehicle: Klucel (hydroxypropylcellulose) (HPC) 108 % of control

CC(C#N)(Nc1ccccc1)c1ccc(Br)cc1 (stereo not drawn)
inactive: [2] 104 % of control | dose: 200.0 mg/kg/injection, schedule: Q04DX003 (ip), vehicle: saline sonified 95 % of control | dose: 400.0 mg/kg/injection, schedule: Q04DX003 (ip), vehicle: saline sonified 95 % of control

CC(=O)Oc1ccc(OC(C)=O)c2c1CC1(C)OC1(C)C2 (stereo not drawn)
inactive: dose: 1.56 mg/kg/injection, schedule: Q01DX009 (ip), vehicle: saline 96 % of control | dose: 3.12 mg/kg/injection, schedule: Q01DX009 (ip), vehicle: saline 96 % of control | [9] 99 % of control | [10] 88 % of control | [11] 88 % of control | [5] 96 % of control | [12] 97 % of control and 109 % of control | [6] 107 % of control | [13] 96 % of control | [7] 87 % of control | [14] 94 % of control | dose: 200.0 mg/kg/injection, schedule: Q04DX003 (ip), vehicle: saline 103 % of control | [15] 90 % of control | dose: 400.0 mg/kg/injection, schedule: Q04DX003 (ip), vehicle: saline 100 % of control

Clc1ccc2c(c1)C(Br)c1cc(Cl)cc(Cl)c1-2 (stereo not drawn)
inactive: [8] 108 % of control | [16] 87 % of control | [17] 87 % of control | [18] 87 % of control

S=C(S)Nc1cccc2ccccc12
inactive: [8] 100 % of control | [4] 90 % of control | [16] 100 % of control | [17] 109 % of control | dose: 400.0 mg/kg/injection, schedule: Q01DX009 (ip), vehicle: saline with Tween-80 105 % of control | [18] 95 % of control

CCCC1CCC(=C2C(=O)CCC2=O)O1 (stereo not drawn)
inactive: dose: 3.13 mg/kg/injection, schedule: Q01DX009 (ip), vehicle: saline 119 % of control | [9] 119 % of control | [10] 119 % of control | [11] 119 % of control | dose: 25.0 mg/kg/injection, schedule: Q04DX002 (ip), vehicle: saline with Tween-80 113 % of control | dose: 25.0 mg/kg/injection, schedule: Q04DX002 (ip), vehicle: saline 107 % of control | dose: 50.0 mg/kg/injection, schedule: Q04DX002 (ip), vehicle: saline with Tween-80 103 % of control | dose: 50.0 mg/kg/injection, schedule: Q04DX002 (ip), vehicle: saline 100 % of control | dose: 100.0 mg/kg/injection, schedule: Q04DX002 (ip), vehicle: saline with Tween-80 120 % of control | dose: 200.0 mg/kg/injection, schedule: Q04DX002 (ip), vehicle: saline 105 % of control

Cc1ccc(S(=O)(=O)F)c(Cl)c1
inactive: dose: 50.0 mg/kg/injection, schedule: Q01DX009 (ip), vehicle: other 91 % of control | [3] 100 % of control | dose: 100.0 mg/kg/injection, schedule: Q01DX009 (ip), vehicle: other 91 % of control | [4] 104 % of control | dose: 200.0 mg/kg/injection, schedule: Q01DX009 (ip), vehicle: other 91 % of control | [17] 109 % of control

FC(F)(F)c1ccc2c(c1)N(CCCN1CCN(CCN3CCCCC3)CC1)c1ccccc1S2
inactive: [10] 118 % of control | [11] 115 % of control | [12] 86 % of control

c1ccc(CSc2ncnc3nc[nH]c23)cc1
inactive: dose: 12.5 mg/kg/injection, schedule: Q01DX010 (ip), vehicle: saline 100 % of control | dose: 25.0 mg/kg/injection, schedule: Q01DX010 (ip), vehicle: saline 100 % of control | dose: 50.0 mg/kg/injection, schedule: Q01DX010 (ip), vehicle: saline 100 % of control | dose: 100.0 mg/kg/injection, schedule: Q01DX010 (ip), vehicle: saline 100 % of control

O/N=C/C=N/O.O/N=C/C=N/O.[Cl][Rh][Cl]
inactive: [11] 99 % of control | [12] 94 % of control | [13] 108 % of control | [14] 100 % of control | [15] 91 % of control

NC(=O)C(Cc1ccc(O)cc1)NC(=O)C(N)Cc1c[nH]c2ccccc12 (stereo not drawn) (H-Trp-Tyr-NH2; configuration not given here)
inactive: dose: 50.0 mg/kg/injection, schedule: Q01DX005 (ip), vehicle: saline 92 % of control | dose: 100.0 mg/kg/injection, schedule: Q01DX005 (ip), vehicle: saline 92 % of control | dose: 200.0 mg/kg/injection, schedule: Q01DX005 (ip), vehicle: saline 87 % of control

CC(=O)OC1(CSc2ccccc2)CCCCC1
inactive: [1] 93 % of control

COC(=O)C(Sc1ccc(Cl)cc1)C1SC(=S)N(C)C1=O (stereo not drawn)
inactive: [8] 118 % of control | [16] 92 % of control

CCCCC(C)C(=O)CC(SCC)c1ccc(Cl)c(Cl)c1 (stereo not drawn)
inactive: [1] 99 % of control | [8] 99 % of control | [16] 96 % of control
